Test results from US6069240A, “Cloning by complementation and related processes” (priority 1998, dated 2000).
“Also recorded” adds a separate entry of the source. Read-outs that look alike come from different tables or passages of the source.

Tests used:
[1] = tested on: DPDE3 (plasmid pADH43, cDNA truncated at 5' end); conditions: 1 μM 3H cAMP, SD in parentheses
[2] = biological target: T1, dnc (plasmid pADDROSC, full-length) (Drosophila melanogaster, UniProt P12252); assay: biochemical
T1 sequence (P12252 1-701 isoform P12252-3): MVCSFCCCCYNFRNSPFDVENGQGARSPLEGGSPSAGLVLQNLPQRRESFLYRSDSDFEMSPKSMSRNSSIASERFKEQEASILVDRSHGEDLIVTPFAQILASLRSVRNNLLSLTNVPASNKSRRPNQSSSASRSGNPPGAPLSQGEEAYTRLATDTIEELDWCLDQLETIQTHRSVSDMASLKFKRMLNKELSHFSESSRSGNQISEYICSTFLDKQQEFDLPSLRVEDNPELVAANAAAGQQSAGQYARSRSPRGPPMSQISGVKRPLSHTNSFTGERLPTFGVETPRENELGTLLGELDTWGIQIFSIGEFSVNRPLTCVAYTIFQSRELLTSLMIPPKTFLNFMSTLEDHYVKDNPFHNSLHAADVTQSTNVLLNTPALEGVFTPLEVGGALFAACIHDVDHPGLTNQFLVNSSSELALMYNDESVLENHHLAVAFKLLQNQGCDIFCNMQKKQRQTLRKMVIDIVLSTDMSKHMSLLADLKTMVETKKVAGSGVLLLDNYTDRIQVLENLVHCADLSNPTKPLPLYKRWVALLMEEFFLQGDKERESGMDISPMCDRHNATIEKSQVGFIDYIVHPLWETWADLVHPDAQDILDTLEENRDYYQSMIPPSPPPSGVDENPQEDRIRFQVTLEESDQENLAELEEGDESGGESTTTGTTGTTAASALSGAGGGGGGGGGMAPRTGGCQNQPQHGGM

[3] = tested on: DPDE2 (plasmid pADH46R, cDNA truncated at 5' end); conditions: 1 μM 3H cAMP, SD in parentheses
[4] = tested on: human dunce-like PDEs (three human clones); assay: Inhibition and kinetics of the human dunce-like PDEs; type: biochemical; conditions: for IC50s fold higher than for their specific PDE classes: compared with literature values for the inhibitors' own PDE classes; for IC50: range over the human clones, read-out: IC50s for the human clones
DPDE4 (plasmid pADH72C) [5] = biological target: T2, DPDE4 (plasmid pADH72C) (Homo sapiens, UniProt Q07343); conditions: 1 μM 3H cAMP, SD in parentheses
T2 sequence (Q07343 whole entry, the tested form may be a part): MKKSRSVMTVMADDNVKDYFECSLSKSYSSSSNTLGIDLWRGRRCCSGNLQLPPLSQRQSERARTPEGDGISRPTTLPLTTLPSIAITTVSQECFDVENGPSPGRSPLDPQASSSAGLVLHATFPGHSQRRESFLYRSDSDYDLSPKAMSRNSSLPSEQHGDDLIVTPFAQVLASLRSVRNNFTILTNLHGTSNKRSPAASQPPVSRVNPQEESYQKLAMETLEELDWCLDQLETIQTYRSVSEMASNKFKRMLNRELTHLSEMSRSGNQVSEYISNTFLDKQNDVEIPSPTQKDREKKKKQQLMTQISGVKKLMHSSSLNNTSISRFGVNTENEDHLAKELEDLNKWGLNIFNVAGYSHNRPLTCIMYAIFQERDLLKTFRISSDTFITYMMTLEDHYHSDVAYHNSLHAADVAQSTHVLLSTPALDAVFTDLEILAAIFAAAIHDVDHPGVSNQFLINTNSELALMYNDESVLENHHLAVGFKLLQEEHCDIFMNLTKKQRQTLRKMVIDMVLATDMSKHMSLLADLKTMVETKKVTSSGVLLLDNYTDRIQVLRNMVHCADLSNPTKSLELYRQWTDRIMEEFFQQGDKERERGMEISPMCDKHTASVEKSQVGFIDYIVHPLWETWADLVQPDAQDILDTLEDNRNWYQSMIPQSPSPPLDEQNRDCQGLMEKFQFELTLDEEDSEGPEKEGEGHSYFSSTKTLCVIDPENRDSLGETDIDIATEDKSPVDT

[6] = tested on: DPDE4 (plasmid pADH72, cDNA truncated at 5' end); conditions: 1 μM 3H cAMP, SD in parentheses
[7] = tested on: dnc (plasmid pADDROSF, cDNA truncated at 5' end); assay: Hydrolysis of 3H cAMP by yeast extracts (Dunce-like PDE clones); type: biochemical, Drosophila; conditions: 1 μM 3H cAMP, SD in parentheses
[8] = tested on: Drosophila dnc encoded PDEs; assay: Inhibition and kinetics of dnc encoded PDEs; type: biochemical; conditions: dnc gene product
[9] = biological target: T3, rat DPD phosphodiesterase (Rattus norvegicus, UniProt P14646); assay: Inhibition of phosphodiesterases by chemicals, cell free extracts of 10DAB yeast; type: biochemical
T3 construct: A large open reading frame of 562 codons was found; The first ATG appears at codon 46; made in house; host or cells: S. cerevisiae 10DAB (pde1-, pde2-), crude extract, vector pADNS
T3 sequence (P14646 220-736): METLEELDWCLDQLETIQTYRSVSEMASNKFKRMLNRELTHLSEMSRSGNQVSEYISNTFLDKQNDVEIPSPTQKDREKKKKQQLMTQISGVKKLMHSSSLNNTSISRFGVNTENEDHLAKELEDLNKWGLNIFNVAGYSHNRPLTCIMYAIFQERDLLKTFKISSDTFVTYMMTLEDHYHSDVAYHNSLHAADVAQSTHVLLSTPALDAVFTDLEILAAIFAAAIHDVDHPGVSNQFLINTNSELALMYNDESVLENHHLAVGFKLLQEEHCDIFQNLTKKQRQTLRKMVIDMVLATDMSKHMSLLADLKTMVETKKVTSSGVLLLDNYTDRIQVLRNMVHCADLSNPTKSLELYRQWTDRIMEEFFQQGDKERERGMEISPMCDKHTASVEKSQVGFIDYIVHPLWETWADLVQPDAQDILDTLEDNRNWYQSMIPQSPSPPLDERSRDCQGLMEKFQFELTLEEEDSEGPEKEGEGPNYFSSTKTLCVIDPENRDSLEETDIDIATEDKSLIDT

DPDE4 (plasmid pADH72C) [10] = biological target: T2, DPDE4 (plasmid pADH72C); assay: biochemical
yeast PDE2 = yeast PDE2 (Saccharomyces cerevisiae, UniProt P06776); assay: Inhibition of phosphodiesterases by chemicals, cell free extracts of 10DAB yeast
yeast PDE2, sequence (P06776 whole entry): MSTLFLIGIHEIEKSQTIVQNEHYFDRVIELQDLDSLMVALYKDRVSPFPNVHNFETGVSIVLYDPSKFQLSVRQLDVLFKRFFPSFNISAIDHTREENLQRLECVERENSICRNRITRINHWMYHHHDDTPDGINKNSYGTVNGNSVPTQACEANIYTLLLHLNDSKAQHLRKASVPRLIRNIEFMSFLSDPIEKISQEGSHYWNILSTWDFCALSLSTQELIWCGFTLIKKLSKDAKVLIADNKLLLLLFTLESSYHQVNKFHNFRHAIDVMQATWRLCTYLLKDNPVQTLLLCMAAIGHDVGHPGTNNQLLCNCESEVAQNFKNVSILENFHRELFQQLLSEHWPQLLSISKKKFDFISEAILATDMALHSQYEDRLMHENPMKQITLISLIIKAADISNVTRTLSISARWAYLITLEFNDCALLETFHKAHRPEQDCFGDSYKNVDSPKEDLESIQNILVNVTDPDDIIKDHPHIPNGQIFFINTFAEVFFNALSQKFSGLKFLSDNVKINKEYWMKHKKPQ

[11] = biological target: pL22 Met (pTM22-like) human cyclic AMP phosphodiesterase (Homo sapiens, UniProt Q13946); assay: Phosphodiesterase activity of 10DAB yeast extract expressing human cDNA (kinetics, inhibitor sensitivity)
pL22 Met (pTM22-like) human cyclic AMP phosphodiesterase, sequence (Q13946 with tags, fused parts or gaps): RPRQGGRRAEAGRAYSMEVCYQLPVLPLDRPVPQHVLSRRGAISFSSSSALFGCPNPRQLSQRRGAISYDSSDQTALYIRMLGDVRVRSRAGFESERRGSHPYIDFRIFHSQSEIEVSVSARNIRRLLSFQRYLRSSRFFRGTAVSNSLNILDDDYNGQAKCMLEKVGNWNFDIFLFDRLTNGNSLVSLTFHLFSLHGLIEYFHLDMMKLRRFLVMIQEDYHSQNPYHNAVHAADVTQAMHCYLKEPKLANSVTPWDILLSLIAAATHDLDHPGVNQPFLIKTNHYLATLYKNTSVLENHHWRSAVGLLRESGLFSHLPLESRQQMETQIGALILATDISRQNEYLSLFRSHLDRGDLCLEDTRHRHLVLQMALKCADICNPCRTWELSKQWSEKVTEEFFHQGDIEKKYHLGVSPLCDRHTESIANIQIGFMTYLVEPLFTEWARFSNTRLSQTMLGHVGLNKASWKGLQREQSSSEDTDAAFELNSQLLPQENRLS

[12] = biological target: pJC44x human cyclic AMP phosphodiesterase; assay: as above; conditions: read-out: EC50 (inhibitor concentration at 50% enzyme velocity); 1.0 μM cAMP
[13] = tested on: yeast strain 10DAB transformed with pAD72 (human family IV phosphodiesterase); assay: Whole cell screen: heat treatment viability of transformed yeast; conditions: 2 h at 30° C. then 50° C. for 30 min; for effect on viable cells of the culture after heat treatment (in words): concentrations up to 100 μM
[14] = tested on: 10DAB cells expressing the cDNA of pRATDPD; assay: Heat shock sensitivity of yeast expressing rat DPD; type: cell-based, S. cerevisiae; conditions: 100 μM for 40 minutes, then 50° C. for 30 minutes
Description: 10DAB cells, which are phosphodiesterase deficient, are sensitive to heat shock. As already discussed, when these cells acquire the capacity to express the cDNA of pRATDPD, they become resistant to heat shock. 10DAB cells expressing the cDNA of pRATDPD were maintained in rich medium (YPD) for three days at stationary phase. […] Control cultures were not treated with any inhibitor. These cultures were then heat shocked in glass tubes at 50° C. […] for 30 minutes. One microliter of each culture was plated.

[15] = tested on: cAMP phosphodiesterases encoded by cDNAs of pTM3, pTM72, pJC44x and pRATDPD; assay: Biochemical analysis of cell lysates
[16] = tested on: yeast containing RAS2^va119 expressing the rat DPD gene; assay: Heat shock phenotype reversal screen; type: cell-based; conditions: resistant cells incubated in agent
Text: The second type of pharmacological screen is applicable even when the mammalian gene encodes a protein of undetermined function, and, thus, cannot be assayed by a biochemical activity. In this method, agents to be tested are applied or introduced directly to the genetically altered microbial host expressing the mammalian protein. Agents capable of inhibiting the mammalian gene or gene product are identified by their ability to reverse the phenotype originally corrected by expression of the mammalian protein in the altered host.
This procedure has been used for mammalian cDNAs encoding cyclic nucleotide phosphodiesterases and a yeast containing RAS2^va119 as the host strain. When the rat DPD gene is introduced into the heat shock sensitive host and expressed, the host strain becomes heat shock resistant. […] This same approach can be applied to assess other genes.

[17] = biological target: T4, pRATDPD gene product (rat DPD cAMP phosphodiesterase) (Rattus norvegicus, UniProt P14646); conditions: cGMP 100 fold over substrate concentration (5 μM cAMP, cGMP up to 500 μM)
T4 sequence (P14646 220-736): T3 sequence (P14646 220-736)

Row | SMILES | IC50 [1] [µM] | IC50 [3] [µM] | IC50s fold higher than for their specific PDE classes [4] [fold] | IC50 [6] [µM] | IC50 [7] [µM] | IC50 ([2]; read-out: IC50) [µM] | IC50 [8] [µM] | IC50 [4] [µM] | EC50 [11] [µM] | EC50 [12] [µM] | also measured
1 | CC(C)Cn1c(=O)n(C)c(=O)c2[nH]cnc21 [IBMX] | 10 | 9.3 | – | 15 | 11 | 12 | – | – | – | – | inhibition at 250 µM [9]: 87%; IC50 (DPDE4 (plasmid pADH72C) [10]): 11 µM; inhibition at 250 µM (yeast PDE2): 0%; inhibition of the human dunce-like PDEs (in words) ([4]; no detectable difference in IC50 between clones): inhibited
2 | Cc1[nH]c(=O)c(C#N)cc1-c1ccncc1 [Milrinone] | 16 | 59 | – | – | > 1000 | > 1000 | – | – | 30 | 30 | effect on viable cells of the culture after heat treatment (in words) [13]: no observable effect
3 | CCCCOc1cc(CC2CNC(=O)N2)ccc1OC (centres unmarked) [RO 20-1724] | – | – | – | – | – | – | 1000 | 1 to 10 | > 300 | 3 | inhibition at 0.1 µM [9]: 35%; inhibition at 1 µM [9]: 52%; inhibition at 10 µM [9]: 79%; inhibition at 100 µM [9]: 92%; inhibition of rat DPD enzymatic activity (in words) ([9]; listed as R020 1724): readily inhibited; also recorded: most effective inhibitors; inhibition at 100 µM (yeast PDE2): 3%
4 | COc1ccc(C2CNC(=O)C2)cc1OC1CCCC1 (centres unmarked) [Rolipram] | 0.18 | 0.5 | – | […] | > 1000 | – | 1000 | 0.2 to 0.5 | > 300 | […] | sensitivity to heat shock (in words) [14]: much more sensitive to heat shock; sensitivity of the cAMP phosphodiesterases to the agent (in words) [15]: sensitive; IC50 [2]: > 740 µM; inhibition of rat DPD enzymatic activity (in words) [9]: readily inhibited; also recorded: most effective inhibitors; cells remaining viable out of approximately 150,000 cells ([13]; 100 μM): less than 10 cells; effect on viable cells of the culture after heat treatment (in words) [13]: reduced the number of viable cells; heat shock phenotype (in words) [16]: become heat shock sensitive again
5 | Cn1c(=O)c2[nH]cnc2n(C)c1=O [Theophylline] | – | – | – | – | – | – | – | – | – | 300 | –
6 | Nc1nc2c(ncn2[C@@H]2O[C@@H]3COP(=O)(O)O[C@H]3[C@H]2O)c(=O)[nH]1 [cGMP] | > 1000 | > 1000 | – | > 1000 | > 1000 | > 1000 | – | – | > 300 | > 300 | IC50 (DPDE4 (plasmid pADH72C) [10]): > 1000 µM; inhibition of cAMP phosphodiesterase activity by cGMP [17]: did not inhibit

Now from value to molecule, other results behind:

Row | IC50 [1] [µM] | IC50 [3] [µM] | IC50s fold higher than for their specific PDE classes [4] [fold] | IC50 [6] [µM] | IC50 [7] [µM] | IC50 ([2]; read-out: IC50) [µM] | SMILES | IC50 [8] [µM] | IC50 [4] [µM] | EC50 [11] [µM] | EC50 [12] [µM] | also measured
7 | 160 | 220 | 10 to 1000 | 220 | 120 | – | COCc1nc2c([nH]1)c(=O)n(C)c(=O)n2CC(C)C [8-Methoxy IBMX] | – | – | – | – | IC50 ([2]; pADDR, 1 μM 3H cAMP, SD in parentheses, read-out: IC50): 170 µM; IC50 (DPDE4 (plasmid pADH72C) [5]): 190 µM
8 | 90 | 140 | 10 to 1000 | 55 | > 1000 | > 1000 | CN(C(=O)CCCOc1ccc2[nH]c(=O)ccc2c1)C1CCCCC1 [Cilostamide] | – | – | – | – | –
9 | 0.1 | 0.22 | – | 0.2 | 1.5 | 3 | CCCCn1c(=O)c2c(ncn2CC(C)=O)n(CCCC)c1=O [Denbufylline] | 1 to 3 | 1 to 10 | – | – | –
10 | 88 | 120 | 10 to 1000 | 90 | 130 | 58 | CCCOc1ccccc1-c1nc2nn[nH]c2c(=O)[nH]1 [Zaprinast] | – | – | – | – | –
